Patent publication US20260115189A1, “Combination Treatment Regimens - SMARCA2 Degrader With Taxane Anticancer Agent” (PRELUDE THERAPEUTICS INCORPORATED, priority 2023, published 2026)
“Also recorded” adds a separate entry of the source. Read-outs that look alike come from different tables or passages of the source.

Assays:
[1] = test system: SMARCA4-deficient NCI-H838 Lung Cancer Xenograft; conditions: for Tumor size: day 20, mean ± SEM; for Tumor size / TGI (tumor growth inhibition vs vehicle): combination of both regimens; for TGI (tumor growth inhibition vs vehicle): day 20
Method: (§1) As used herein, tumor growth inhibition is calculated as follows: Mean % Inhibition=(mean(C)−mean(T))/mean(C)*100%, wherein C is the tumor volume in the control arm, and T is the tumor volume in the treatment arm.
(§2) The NCI-H838-#5 tumor cells were maintained in vitro with RPMI1640 medium supplemented with 10% fetal bovine serum at 37° C. in an atmosphere of 5% CO2 in air. The cells in exponential growth phase were harvested and quantitated by cell counter before tumor inoculation. NOD-SCID female mice were inoculated subcutaneously in the right front flank region with NCI-H838-#5 tumor cells (5×10^6) in 0.1 ml of PBS mixed with Matrigel (1:1) for tumor development. The randomization was performed when the mean tumor size reaches approximately 100-150 mm^3.
(§3) Tumor volumes at the end of studies were evaluated by the Mann-Whitney test (unpaired, nonparametric test). * P<0.05 […], *** P<0.001 versus vehicle are shown in graphs.

[2] = test system: SMARCA4-mutated cancer cell lines; assay: Cell cycle arrest in SMARCA4-mutated cancer cell lines; assay type: cell-based
[3] = test system: SMARCA4-mutated NCI-H838 tumor tissues; assay: RNA-sequencing and Gene Set Enrichment Analysis of treated tumor tissues; assay type: in vivo; conditions: NCI-H838 tumor tissues treated for one week
Method: To elucidate the mechanism of action for the combination effects observed in vivo, RNA-sequencing was conducted on SMARCA4-mutated NCI-H838 tumor tissues treated with Formula (I) and/or docetaxel for one week.

[4] = test system: SMARCA4 wild-type cell lines; assay: Cell cycle arrest in SMARCA4 wild-type cell lines; assay type: cell-based
[5] = test system: SMARCA4-deficient A549 Lung Cancer Xenograft; conditions: for Tumor size: day 28, mean ± SEM
Method: as §1
as §2, with “A549” for “NCI-H838-#5”, “Ham's F12K” for “RPMI1640”, “BALB/c nude” for “NOD-SCID”, “PBS” for “PBS mixed with Matrigel (1:1)”
as §3

[6] = test system: SMARCA4-WT Calu-6 Lung Cancer Xenograft; conditions: for Tumor size: day 21, mean ± SEM; for Tumor size / TGI (tumor growth inhibition vs vehicle): Formula (I) 100 mg/kg Q3D, docetaxel 5/10 mg/kg QW, combination 100 + 5/10 mg/kg Q3D + QW; for TGI (tumor growth inhibition vs vehicle): day 21
Method: as §1
as §2, with “Calu-6” for “NCI-H838-#5”, “MEM” for “RPMI1640”, “BALB/c nude” for “NOD-SCID”, “PBS” for “PBS mixed with Matrigel (1:1)”
as §3

[7] = biological target: T1, SMARCA2 protein (Homo sapiens, UniProt P51531); assay: Semi-quantitative western blot of SMARCA2 in tumor tissue; assay type: in vivo, mouse xenograft; conditions: for tumor SMARCA2 protein levels: repeat administration, Formula (I) 100-200 mg/kg s.c. Q3D, over a 24 h period, docetaxel 5-20 mg/kg i.v. QW; for tumor SMARCA2 protein levels relative to vehicle treated mice: tumors collected 4 hr and 24 hr post final dosing, Formula (I) 100 mg/kg s.c. Q3D, docetaxel 10/5 mg/kg i.v. QW
T1 construct: from tissue; host or cells: Frozen xenograft tumor tissue from human lung cancer cells (NCI-H838, A549 or Calu-6) grown subcutaneously in mice
T1 sequence (P51531 whole entry): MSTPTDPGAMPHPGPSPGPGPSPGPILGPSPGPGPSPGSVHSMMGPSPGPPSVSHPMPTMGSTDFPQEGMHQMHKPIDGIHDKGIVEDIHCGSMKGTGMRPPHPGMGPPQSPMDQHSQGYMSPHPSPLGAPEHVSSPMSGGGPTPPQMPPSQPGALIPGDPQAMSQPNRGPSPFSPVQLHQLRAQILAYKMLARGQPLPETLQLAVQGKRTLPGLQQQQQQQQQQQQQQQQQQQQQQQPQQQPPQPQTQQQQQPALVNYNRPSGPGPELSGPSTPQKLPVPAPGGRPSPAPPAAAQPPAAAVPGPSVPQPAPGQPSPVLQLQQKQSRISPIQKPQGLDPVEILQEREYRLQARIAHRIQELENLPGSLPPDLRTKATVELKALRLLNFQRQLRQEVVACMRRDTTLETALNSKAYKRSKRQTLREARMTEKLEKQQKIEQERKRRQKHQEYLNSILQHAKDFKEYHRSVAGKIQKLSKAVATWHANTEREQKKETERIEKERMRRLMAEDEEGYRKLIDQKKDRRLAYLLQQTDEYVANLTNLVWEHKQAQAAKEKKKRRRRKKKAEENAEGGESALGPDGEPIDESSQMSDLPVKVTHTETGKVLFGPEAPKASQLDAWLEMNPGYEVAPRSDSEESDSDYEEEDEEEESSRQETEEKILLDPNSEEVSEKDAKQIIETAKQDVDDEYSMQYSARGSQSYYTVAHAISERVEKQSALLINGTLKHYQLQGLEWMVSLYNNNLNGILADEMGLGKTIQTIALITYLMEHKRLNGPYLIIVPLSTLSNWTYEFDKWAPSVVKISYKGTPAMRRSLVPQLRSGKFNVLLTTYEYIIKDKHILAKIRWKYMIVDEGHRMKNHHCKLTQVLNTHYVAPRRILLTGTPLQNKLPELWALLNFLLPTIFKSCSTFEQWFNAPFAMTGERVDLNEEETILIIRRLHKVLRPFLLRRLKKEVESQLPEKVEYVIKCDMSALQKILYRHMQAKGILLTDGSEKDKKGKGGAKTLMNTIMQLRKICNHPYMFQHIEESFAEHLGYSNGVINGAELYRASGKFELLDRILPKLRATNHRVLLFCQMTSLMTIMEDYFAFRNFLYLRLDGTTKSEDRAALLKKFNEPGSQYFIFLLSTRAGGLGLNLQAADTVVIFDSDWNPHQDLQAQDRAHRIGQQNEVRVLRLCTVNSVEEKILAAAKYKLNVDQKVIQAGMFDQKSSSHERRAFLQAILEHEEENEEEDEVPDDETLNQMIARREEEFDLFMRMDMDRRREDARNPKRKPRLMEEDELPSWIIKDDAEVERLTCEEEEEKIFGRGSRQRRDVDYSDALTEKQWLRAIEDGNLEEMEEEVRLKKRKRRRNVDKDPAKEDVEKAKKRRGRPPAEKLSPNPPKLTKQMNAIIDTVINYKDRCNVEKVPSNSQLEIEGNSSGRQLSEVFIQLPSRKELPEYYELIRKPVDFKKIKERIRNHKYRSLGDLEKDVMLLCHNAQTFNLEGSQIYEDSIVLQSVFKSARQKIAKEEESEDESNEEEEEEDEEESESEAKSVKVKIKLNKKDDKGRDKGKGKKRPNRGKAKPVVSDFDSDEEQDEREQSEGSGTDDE
Method: SMARCA2 protein expression was measured by semi-quantitative western blot following extraction of protein from frozen tumor tissue. Up to 50 mg of frozen tumor tissue was measured and placed into 0.5 mL conical tubes containing 0.5 mm ceramic beads and 400 μL RIPA buffer containing 1× protease and phosphatase inhibitors (ThermoFisher Scientific, A32959) and PMSF (Cell Signaling Technology, #8553). Tissues were homogenized with a Bead Ruptor Elite at a speed of 5 m/sec for 25 seconds and centrifuged at 12,000 rpm for 3 min at 4° C. Milling and centrifugation steps were performed two additional times before transferring supernatant to UltraFree 0.45 μm 0.5 mL filter columns (Millipore Sigma, #UFC30HV) and centrifuging at 12,000 rpm for 1 min. Flow through lysate was quantified by BCA assay, diluted with 1 volume of RIPA lysis buffer, and mixed with Laemmli sample buffer. Lysates were boiled at 95° C. for 5 min and 30 μg of protein was loaded in 4-20% Criterion TGX Precast Midi Protein Gels (BioRad, #5671095). Protein was transferred to PVDF membranes by Trans-Blot Turbo system (Bio-Rad) and probed with Actin (Signma, #A2228) and SMARCA2 (Cell Signaling Technology, #11966) primary antibodies at a 1:1000 dilution and IRDye 800CW or IRDye 680RD secondary antibodies (LICOR, antibody, #926-68070) in iBind automated western system (ThermoFisher Scientific). The stained blots were scanned by LiCOR Odyssey CLx imaging system to acquire integrated intensities at 700 nm and 800 nm channel and analyzed using Image Studio software v5.2.

[8] = test system: NCI-H838 cells (SMARCA4-del NSCLC cell line); assay: Cell cycle analysis by flow cytometry (EdU / DRAQ5); assay type: cell-based, human; conditions: NCI-H838, single agent, 48 hrs
Method: Cells were seeded, incubated overnight, and dosed with drug treatments the next day. 2 hours before collection, cells were incubated with 10 μM EdU at 37 C then harvested using trypsin EDTA and washed with PBS/1% BSA. 4% PFA was added to the cells followed by a 15 minute incubation at RT. Cell were washed again with PBS/1% BSA and resuspended in 1X Click-iT® saponin-based permeabilization reagent for 15-minutes. Following centrifugation, supernatant was removed, and cells were incubated for 30 mins at RT, protected from light, in Click-iT® reaction cocktail, which was prepared according to manufacturer's instructions. Cells were then washed once with 0.01% Triton in PBS and resuspended in PBS. DRAQ5™ was added to cells at 1:200 dilution, incubated at room temperature, preventing exposure to light, for 30-60 min. Lastly, cells were washed with PBS/1% BSA and resuspended in 400 μl PBS/1% BSA. EdU with Pacific Blue™ azide and was detected using 405 nm excitation with a violet emission filter (450/50 nm) on a flow cytometer and analyzed using FlowJo software.
The combination effects of Formula (I) and docetaxel on the cell cycle was analyzed in a SMARCA4-deficient NSCLC lung cancer cell line by flow cytometry using DraQ5 and Click-iT EdU Pacific Blue. […]

[9] = Formula (I) 100 mg/kg s.c. Q3D, docetaxel 10/5 mg/kg i.v. QW
[10] = as printed in text: Formula (I) 200 mg/kg s.c. Q3D, docetaxel 5-20 mg/kg i.v. QW, combination Formula (I) 100 mg/kg s.c. Q3D + docetaxel 5-20 mg/kg i.v. QW
[11] = Formula (I) 100 mg/kg s.c. Q3D, docetaxel 5/10/20 mg/kg QW, combination 200 + 5/10/20 mg/kg Q3D + QW
[12] = day 28, Formula (I) 100 mg/kg s.c. Q3D, docetaxel 5/10/20 mg/kg QW, combination 200 + 5/10/20 mg/kg Q3D + QW

Row | Compound | tolerability (morbidity, body weight) ([1]; Formula (I) 100 mg/kg s.c. Q3D, docetaxel 10/5 mg/kg i.v. QW, combination of both, one Formula (I) dosing holiday on day 12 in combination) | Tumor size [1, 9] | tolerability (morbidity, body weight) ([1]; single agents: Formula (I) 50 or 75 mg/kg i.v. QW, nab-paclitaxel 30 mg/kg i.v. Q3W) | cell cycle arrest [2] | Gene Set Enrichment Analysis: E2F targets and G2/M pathways [3] | G1 cell cycle arrest [4] | tolerability (morbidity, body weight) ([5]; Formula (I) s.c. Q3D, docetaxel 5-20 mg/kg i.v. QW, combination) | TGI (tumor growth inhibition vs vehicle) [5, 10] | Tumor size [5, 11] | TGI (tumor growth inhibition vs vehicle) [5, 12] | tolerability (morbidity, body weight) ([6]; Formula (I) 100 mg/kg s.c. Q3D, docetaxel 5/10 mg/kg i.v. QW, combination) | growth of SMARCA4 WT Calu-6 lung tumor xenografts ([6]; Formula (I) at efficacious dosing regimens) | Tumor size [6] | TGI (tumor growth inhibition vs vehicle) [6] | tumor SMARCA2 protein levels [7] | tumor SMARCA2 protein levels relative to vehicle treated mice [7] | cell cycle arrest [8] | TGI (tumor growth inhibition vs vehicle) [1, 9] | TGI (tumor growth inhibition vs vehicle) ([1]; Formula (I) 100 mg/kg s.c. Q3D, docetaxel 10/5 mg/kg i.v. QW, listed as docetaxel)
1 | Cc1ncsc1-c1ccc([C@H](C)NC(=O)[C@@H]2C[C@@H](O)CN2C(=O)[C@@H](c2cc(O[C@@H](C)CN3CC[C@@H](N4CCN5c6cc(-c7ccccc7O)nnc6NC[C@H]5C4)C3)no2)C(C)C)cc1 [Formula (I)] | well tolerated | 590.46 ± 102.37 mm^3 | well tolerated | induced G1 cell cycle arrest | downregulating E2F targets and G2/M pathways | not in SMARCA4 wild-type cell lines | well tolerated | 32% | 1,785 ± 221 mm^3 | 31.6% (day | well tolerated | did not inhibit the growth | 1,535 ± 174 mm^3 | 27.2% (day | complete reduction | significantly decreased; also recorded: abolished | dose dependent G1 arrest signal | – | –
2 | CC(=O)O[C@@]12CO[C@@H]1C[C@H](O)[C@@]1(C)C(=O)[C@H](O)C3=C(C)[C@@H](OC(=O)[C@H](O)[C@@H](NC(=O)OC(C)(C)C)c4ccccc4)C[C@@](O)([C@@H](OC(=O)c4ccccc4)[C@H]21)C3(C)C [Docetaxel, reference compound] | – | 971.86 ± 127.82 mm^3 | – | induced G2/M arrest | positive enrichment of E2F targets and G2/M pathways | – | – | 13% | 2,223 ± 300 mm^3 | 13.3% (day | – | – | 1,338 ± 132 mm^3 | 37.6% (day | no effect | no effect; also recorded: unaffected | dose dependent G2/M arrest signal | 55.0% (day | 55%
